Laboratory results: article PMC6332076, “Plasma Pharmacokinetics of Polyphenols in a Traditional Japanese Medicine, Jumihaidokuto, Which Suppresses Propionibacterium acnes-Induced Dermatitis in Rats” (Molecules, 2015)
Like-named read-outs stand apart in the source and are kept apart here.

Experiments:
in vivo = assay: in vivo; parameters: species or system rat; conditions: for concentration at 24 h / concentration at 1 h: rat, po, 2 g/kg; for concentration at 24 h: in vivo, 24 h after oral JHT 2 g/kg; for AUC(0-t) / Cmax / half-life / tmax: oral JHT 2 g/kg, non-compartmental; for concentration at 1 h: plasma
Procedure: The higher dose than that in the pharmacological test was used to detect more constituents. […] In some experiments to deconjugate glucuronidated polyphenols, the samples were incubated with 75 mmol/L phosphate buffer containing 200 units/mL β-glucuronidase from Escherichia coli (Sigma-Aldrich) for 2 h at 37 °C.
For quantification of liquiritin, liquiritigenin, isoliquiritin, isoliquiritigeniin, hesperidin, hesperetin, castalagin, and all flavonoid glucuronides, 25–60 µL of standard solution and 25 µL of internal standard solution were added to 200–300 µL of plasma samples, followed by mixing well. Methanol (750–800 µL) was added to the solutions, followed by mixing and centrifugation (7000 g, 5 min). The supernatants were collected and dried at 40 °C under a stream of nitrogen gas. Then, the dried residue was dissolved in 50–100 μL of the HPLC mobile phase of each analytical method, and a 1–20 μL portion was injected into the LC-MS/MS systems. For quantification of genistein, luteolin, quercetin, (+)-catechin, (−)-epicatechin gallate, (±)-gallocatechin, Gallic acid, 4-O-methylgallic acid, hamamelitannin, 1,2,3,6-tetra-O-galloyl glucose, 1,2,3,4,6-penta-O-galloyl glucose, eugeniin, and 1-desgalloyl eugeniin, 200 μL of plasma samples were used. The amounts were measured using the same procedure, as described previously, except ethyl acetate (500 μL) and 2% acetic acid (100 μL), instead of methanol, were used concurrently as an extraction solution.
Plasma pharmacokinetic data were analyzed by non-compartmental modeling using Phoenix WinNonlin (version 6.3, Certara L.P., St. Louis, MO, USA) to determine various pharmacokinetic constants including the maximum concentration (Cmax), time to maximum concentration (tmax), apparent elimination half-life (t1/2), and area under the plasma concentration-time curve from time zero to the last observation (AUC0–last). The t1/2 was […] loge2/ke, where ke is the terminal elimination (at least three data points on the descending linear limb) rate constant.

[1] = Antioxidant assay, hydrogen peroxide-dependent oxidation (OxiSelect In vitro ROS/RNS Assay, DCFH-DiOxyQ); format: biochemical; conditions: for activity against ROS (in words): hydrogen peroxide-dependent oxidation; for Antioxidant activity, IC50, Hydrogen Peroxide: tested at 0.1-30 μmol/L, N = 3, n.d. = not detectable at the maximal concentration (30 μmol/L); for anti-ROS activity of glucuronide compared with its aglycone: serially-diluted concentrations
Procedure: Figure 4 Concentration dependency of flavonoid glucuronides and comparison with aglycones. Glucuronides and aglycones of flavonoid were assayed at serially-diluted concentrations to assess on hydrogen peroxide-dependent oxidation. Test samples were incubated with hydrogen peroxide for 5 min, followed by mixing with a probe of oxidant activity. After 15 min incubation, the hydrogen peroxide-dependent fluorescent intensity was measured. Data are shown as mean ± S.E. of triplicates. To assess ROS, OxiSelect In vitro ROS/RNS Assay kits ([…], Minneapolis, MN, USA) were used according to manufacturer’s instructions. Briefly, a test sample was incubated with 2.5 μmol/L of hydrogen peroxide for 5 min, and dichlorodihydrofluorescin DiOxyQ (DCFH-DiOxyQ) was added as a probe of oxidant activity. After 15 min incubation, the hydrogen peroxide-dependent fluorescent intensity was measured using a fluorescent plate reader (Infinite M200; Tecan, Wako Pure Chemical Industries). Percentage of inhibition of ROS was calculated using the following equation: [1 − (sample RFU^a − base RFU^b)/(control RFU^c − base RFU^b)] × 100 (1) where RFU is a relative fluorescent unit of reaction solution, a is RFU of DCFH-DiOxyQ with hydrogen peroxide and sample, b is RFU of DCFH-DiOxyQ alone, and c is RFU of DCFH-DiOxyQ with hydrogen peroxide.

[2] = Antioxidant assay, nitric oxide generated from NOR3 (Griess reagent); format: biochemical; conditions: for activity against nitric oxide (in words): nitric oxide reaction
Procedure: To quantify nitric oxide, a test sample was incubated at 37 °C for 150 min in PBS supplemented with 30 μmol/L of (±)-(E)-4-ethyl-2-[(E)-hydroxyimino]-5-nitro-3-hexenamide (NOR3). Nitric oxide generated naturally from NOR3, was measured using the Griess reagent (1% sulfanilamide, 0.1% N-(1-naphthyl) ethylenediamine dihydrochlride in 5% H3PO4). Briefly, 100 μL of the reacted solution was incubated for 5 min with 100 μL Griess reagent. Optical densities at 540 nm were then measured.

[3] = rat plasma after oral JHT 2 g/kg
[4] = rat plasma, 1 h after oral JHT 2 g/kg, read-out: plasma concentration before β-glucuronidase treatment
[5] = rat plasma, 6 h after oral JHT 2 g/kg

Compound	AUC(0-t) (in vivo; rat plasma) [ng·h/mL]	Cmax (in vivo; rat plasma) [ng/mL]	half-life (in vivo; rat plasma) [h]	tmax (in vivo; rat plasma) [H]	Antioxidant activity, IC50, Hydrogen Peroxide [1]	other results
COc1c2c(cc3oc(CO)cc(=O)c13)O[C@H](C(C)(C)O)C2 [Cimifugin, cimifugin, reference compound]						appearance / detection in plasma (in vivo; [3]): identified by major peaks; activity against ROS (in words) [1]: no activity; activity against nitric oxide (in words) [2]: no activity
O=C(O)[C@H]1O[C@@H](Oc2cc(O)c3c(=O)cc(-c4ccc(O)c(O)c4)oc3c2)[C@H](O)[C@@H](O)[C@@H]1O [LTN-7G, luteolin 7-O-glucuronide]						appearance / detection in plasma (in vivo; [3]): did not appear in the plasma
O=C(O)[C@H]1O[C@@H](Oc2c(-c3ccc(O)c(O)c3)oc3cc(O)cc(O)c3c2=O)[C@H](O)[C@@H](O)[C@@H]1O [QCN-3G, quercetin 3-O-glucuronide]						appearance / detection in plasma (in vivo; [3]): did not appear in the plasma
O=c1c(-c2ccc(O)cc2)coc2cc(O)cc(O)c12 [genistein]						concentration at 24 h (in vivo; rat plasma, read-out: plasma concentration after β-glucuronidase treatment): 78.3 ng/mL; concentration at 24 h (in vivo; rat plasma, read-out: plasma concentration before β-glucuronidase treatment): 0.975 ng/mL
O=C(O)c1cc(O)c(O)c(O)c1 [Gallic acid]						plasma concentration (not detected) (in vivo; [3]): < 10 ng/mL
COc1c(O)cc(C(=O)O)cc1O [4-O-Methylgallic acid, 4-O-methylgallic acid]	32.7	6.65	1.62	2.00	not detectable even at the highest concentration	plasma concentration after β-glucuronidase treatment (in vivo; rat plasma, 1 h after oral JHT 2 g/kg): unchanged; concentration at 1 h (in vivo; [4]): 5.57 ng/mL; Antioxidant activity, IC50, Nitric Oxide ([2]; tested at 0.1-30 μmol/L, N = 3, n.d. = not detectable at the maximal concentration (30 μmol/L)): 3.59 µg/mL
CC1(C)[C@@H](O)CC[C@]2(C)[C@H]3C(=O)C=C4[C@@H]5C[C@@](C)(C(=O)O)CC[C@]5(C)CC[C@@]4(C)[C@]3(C)CC[C@@H]12 [Glycyrrhetic acid, glycyrrhetic acid, reference compound]						appearance / detection in plasma (in vivo; [3]): identified by major peaks; activity against ROS (in words) [1]: no activity; activity against nitric oxide (in words) [2]: no activity
O=C1C[C@@H](c2ccc(O[C@@H]3O[C@H](CO)[C@@H](O)[C@H](O)[C@H]3O)cc2)Oc2cc(O)ccc21 [Liquiritin]						concentration at 1 h (in vivo; rat plasma, 1 h after oral JHT 2 g/kg, read-out: plasma concentration after β-glucuronidase treatment): 39.1 ng/mL; concentration at 1 h (in vivo; [4]): 2.4 ng/mL
COc1cc(C(=O)O)cc(O)c1O [3-O-methylgallic acid]						activity against ROS (in words) [1]: strong activity; activity against nitric oxide (in words) [2]: not nitric oxide
O=C1CC(c2ccc(O)cc2)Oc2cc(OC3OC(C(=O)O)C(O)C(O)C3O)ccc21 (stereo not shown) [Liquiritigenin 7-O-glucuronide, liquiritigenin 7-O-glucuronide]	223	35.6	2.72	2.00	0.765 µg/mL	anti-ROS activity of glucuronide compared with its aglycone ([1]; Figure 4): completely identical to that of their aglycones
O=C(C=Cc1ccc(O)cc1)c1ccc(OC2OC(C(=O)O)C(O)C(O)C2O)cc1O (stereo not shown) [Isoliquiritigenin 4′-O-glucuronide, isoliquiritigenin 4′-O-glucuronide]	80.8	15.8	2.25	0.250	0.691 µg/mL	anti-ROS activity of glucuronide compared with its aglycone ([1]; Figure 4): completely identical to that of their aglycones
O=C1C[C@@H](c2ccc(O)cc2)Oc2cc(O)ccc21 [liquiritigenin]						plasma concentration after β-glucuronidase treatment (in vivo; [5]): 200 ng/mL; plasma concentration before β-glucuronidase treatment (in vivo; [5]): 0.873 ng/mL; activity against ROS (in words) [1]: strong activity
O=C(C=Cc1ccc(O)cc1)c1ccc(O)cc1OC1OC(C(=O)O)C(O)C(O)C1O (stereo not shown) [Isoliquiritigenin 2′-O-glucuronide, isoliquiritigenin 2′-O-glucuronide]	11.6	3.19		0.250	0.704 µg/mL	
O=C1CC(c2ccc(OC3OC(C(=O)O)C(O)C(O)C3O)cc2)Oc2cc(O)ccc21 (stereo not shown) [Liquiritigenin 4′-O-glucuronide, liquiritigenin 4′-O-glucuronide]	522	84.1	2.27	2.00	not detectable even at the highest concentration	activity against ROS (in words) [1]: no activity; anti-ROS activity of glucuronide compared with its aglycone ([1]; Figure 4): no activity
O=C(C=Cc1ccc(OC2OC(C(=O)O)C(O)C(O)C2O)cc1)c1ccc(O)cc1O (stereo not shown) [Isoliquiritigenin 4-O-glucuronide, isoliquiritigenin 4-O-glucuronide]	1.84	0.388	5.68	0.250		

Continued, in another order:

AUC(0-t) (in vivo; rat plasma) [ng·h/mL]	Cmax (in vivo; rat plasma) [ng/mL]	half-life (in vivo; rat plasma) [h]	tmax (in vivo; rat plasma) [H]	Antioxidant activity, IC50, Hydrogen Peroxide [1]	Compound	other results
812	53.4		24.0	0.638 µg/mL	O=C(O)C1OC(Oc2cc(O)c3c(=O)c(-c4ccc(O)cc4)coc3c2)C(O)C(O)C1O (stereo not shown) [Genistein 7-O-glucuronide, genistein 7-O-glucuronide]	plasma concentration (in vivo; rat plasma at 10 and 24 h after oral JHT): approximately 50 ng/mL; tmax (in vivo; rat plasma, listed as GEN-7G): 24 H; inhibition (anti-ROS activity) ([1]; at 134 ng/mL, statistically significant, Figure 4): 25%; anti-ROS activity of glucuronide compared with its aglycone ([1]; Figure 4): completely identical to that of their aglycones
190	34.2	2.99	4.00	4.27 µg/mL	COc1ccc(C2CC(=O)c3c(O)cc(OC4OC(C(=O)O)C(O)C(O)C4O)cc3O2)cc1O (stereo not shown) [Hesperetin 7-O-glucuronide, hesperetin 7-O-glucuronide]	anti-ROS activity of glucuronide compared with its aglycone ([1]; Figure 4): partially decreased
